Experimental findings from US9326993B2, “Treatment of pulmonary and pleural fibrosis using HSP27 inhibitors” (ONCOGENEX TECHNOLOGIES INC., priority 2011, dated 2016) are described below.

Data set [1] concerns human mesothelial Met-5A cells. In words: rTGF-β1-induced EMT in Met-5A cells (western blot, RT-PCR). The note with it: siRNA 50 nM, rTGF-β1 10 ng/ml. The format is cell-based. The method, then:
(§1) Mesothelial rat established cell line 4/4 RM4 cells (American Type Culture Collection—ATCC—Rockville, Md.) were seeded in Ham's F10 (Lonza), with FBS 15%. Mesothelial human established cell line MET-5A (ATCC) were seeded in Medium 199 (lonza), 1% L-glutamine, 1% penicillin-streptomycin with 10% FBS. Epithelial human cell line A549 cells (ATCC) and were seeded in Ham's F10 (lonza) with 10% FBS.
(§2) For EMT induction and analysis, all the different cells were exposed to their respective medium containing 10 ng/ml recombinant (r)TGF-β1 (R&D system, Lille, France) for 6, 12, 24, or 48 hours.
(§3) HSP27 siRNA were purchased from applied bios system (Courtaboeuf, France). The sense and antisense sequence were respectively: 5′-GUUCAAAGCAACCACCUGUtt-3 (SEQ ID No: 4)′ and 5′-ACAGGUGGUUGCUUUGAACtt-3′. (SEQ ID No: 5). They were used at a concentration of 50 nM. SiRNA were transfected using INTERFERin (polyplus, Illkirch, France) following the manufacturer recommendations. 5-6 hours after transfection medium were changed and cells were treated or not with 10 ng/ml TGF-β1 for 12, 24 or 48 hours. Seq ID No. 3 was used as a random control oligonucleotide.
Protein extraction was made using triton X 100 during 30 min at 4° C., vortexing every 10 min. Protein dosage is made with the modified lowry kit (Biorad, Marne-la-Coquette, France). Equal amounts of protein (30-50 μg) were electrophoresed through 8 to 12% SDS polyacrylamide gels. The separate protein bands were transferred onto a PVDF membrane. The non-specific sites were saturated with a solution of PBS-tween 0.1%, nonfat milk 8%. Membranes were incubated with primary Abs over night at 4° C. Secondary Abs IgG linked to HRP (HorseRadish Peroxidase, Jackson ImmunoResearch Laboratories, PA, USA) were used at a concentration of 1/5000. Enhanced ChemiLuminescent substrat (ECL, santa cruz biotechnology, CA, USA) was used to detect the protein of interest. […]
(§4) Total RNA was extracted using TRIzol (Invitrogen, Cergy Pontoise, France) from MET-5A and A549 cells treated or not with rTGF-β1 12 or 24 hours and transfected or not by HSP27 siRNA or plasmid encoding HSP27. […] Quantitative RT-PCR was performed on the cDNA using the SYBR green master mix (promega, Charbonnieres, France). […]
Background: In western blotting, separated proteins are transferred to a membrane and probed.

Data set [2] concerns epithelial A549 cells. Nature of the data set: rTGF-β1-induced EMT in A549 cells. The format is cell-based, human. Particulars: siRNA 50 nM, rTGF-β1 10 ng/ml. The method, then:
as §1, §2
HSP27 siRNA were purchased from applied bios system (Courtaboeuf, France). The sense and antisense sequence were respectively: 5′-GUUCAAAGCAACCACCUGUtt-3 (SEQ ID No: 4)′ and 5′-ACAGGUGGUUGCUUUGAACtt-3′. (SEQ ID No: 5). They were used at a concentration of 50 nM. SiRNA were transfected using INTERFERin (polyplus, Illkirch, France) following the manufacturer recommendations. 5-6 hours after transfection medium were changed and cells were treated or not with 10 ng/ml TGF-β1 for 12, 24 or 48 hours. […]
as §4

For data set [3], the system named is mesothelial Met-5A cells. In words: Scratch test (migration) on Met-5A cells after rTGF-β1. The data set is classed as cell-based, human. The note with it: cells treated with rTGF-β1. The protocol: as §3
Therefore, HSP27 inhibition blocked this all well known features of EMT induced by TGF-β1 in cultured cells. This corresponded to HSP27 expression levels (FIG. 3G).

As to “HSP27 siRNA: siRNA, sense 5′-GUUCAAAGCAACCACCUGUtt-3′ (SEQ ID No: 4), antisense 5′-ACAGGUGGUUGCUUUGAACtt-3′ (SEQ ID No: 5) (sense GUUCAAAGCAACCACCUGUTT; antisense ACAGGUGGUUGCUUUGAACTT; chemistry not given here; listed as Homo sapiens)”, in data set [1] (Met-5A cells), the “rTGF-β1 induced α-SMA” value is listed as “inhibits”. Besides, in data set [1] (48 h), the “rTGF-β1-induced E-cadherin down-regulation” value is “blocks” and the “rTGF-β1-induced α-SMA upregulation” value is recorded as “blocks”. In addition, in data set [2], the “rTGF-β1 induced α-SMA” value is given as “inhibits”. Moreover, the “migration capacity in scratch test” value in data set [3] was “much weaker migration”. Moreover, in data set [3] (48 h), the “wound recovery by 48 h” value is on record as “still largely unrecovered”.
